# PubChem BioAssay (NCI)
# “And” between values parts separate entries of the source, which are not always exact repeats. Equal entries are not always repeated.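 A five-concentration, 48-hour dose response in 96-well plates underlies each endpoint, interpolated linearly between surrounding concentrations. The concentration for 50% growth inhibition is given as GI50. TGI: total growth inhibition.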
# How the values were obtained:
# Test in all cases: DTP human tumour cell line panel, 48 h
# [1] = tested on: HCT-15 colon
# [2] = tested on: SK-MEL-2 melanoma
# [3] = tested on: UO-31 renal
# [4] = tested on: CAKI-1 renal
# [5] = tested on: HOP-92 NSCLC
# [6] = tested on: MALME-3M melanoma
# [7] = tested on: MCF7 breast
# [8] = tested on: UACC-62 melanoma
# [9] = tested on: OVCAR-8 ovarian
# [10] = tested on: OVCAR-4 ovarian
Structure (SMILES),GI50 [1],GI50 [2],GI50 [3],GI50 [4],GI50 [5],TGI [5],GI50 [6] [µM],GI50 [7] [µM],TGI [7] [µM],GI50 [8],GI50 [9],GI50 [10] [µM],TGI [10] [µM],TGI [2] [µM],TGI [3] [µM],TGI [4] [µM],TGI [6] [µM],TGI [8] [µM],TGI [9] [µM],TGI [1] [µM]
COC(=O)C12OCC34C(CC5C(C)=CC(=O)C(O)C5(C)C3C(O)C1O)OC(=O)C(OC(=O)CC(C)C)C24 (stereo not given),0.0565 µM and 0.05 µM,0.0562 µM and 0.316 µM,0.256 µM and 0.0637 µM,0.12 µM and 0.0876 µM,0.0442 µM and 0.05 µM,0.0174 µM and 0.119 µM and 0.0651 µM,< 0.0356,0.000602,0.00221,0.0478 µM and 0.05 µM,< 0.0391 µM and 0.05 µM,–,–,–,–,–,–,–,–,–
Clc1cccc(Cc2cn3cc(-c4ccccc4)nc3s2)c1,–,3.28 µM,7.47 µM,2.68 µM,11.5 µM,34.3 µM,21.4,2.79,> 100,0.323 µM,20.5 µM,4.42,> 100,34.4,> 100,> 100,> 100,1.97,> 100,–
COc1ccc(/C=C2\CCCC3=C2N=C2SC=NN2C3c2ccc(OC)c(OC)c2)cc1OC (stereo not given),5.58 µM,25.8 µM,15.3 µM,7.43 µM,11.6 µM,58.9 µM,22.6,2.42,> 100,4.21 µM,5.51 µM,–,–,> 100,> 100,> 100,78.7,80,> 100,60.5
O=C(O)C#Cc1ccc([N+](=O)[O-])cc1,–,–,–,–,–,> 100 µM,–,–,> 100,–,–,–,> 100,> 100,> 100,> 100,> 100,> 100,> 100,> 100
CCCNNC(=O)c1ccc(CNC(=O)/C=C/c2ccccc2)cc1,0.305 µM,0.199 µM,0.0515 µM,0.174 µM,0.0821 µM,0.609 µM,0.0475,0.216,> 100,0.0825 µM,0.114 µM,0.375,> 100,–,0.771,0.733,> 100,0.249,> 100,> 39
Nc1nn(C(=O)Nc2ccc(Cc3ccccc3)cc2)c2ccccc12,1.08 µM,36.4 µM,0.347 µM,21.1 µM,14.2 µM,42.6 µM,19.2,0.555,8.82,0.353 µM,21.9 µM,10.7,40.4,> 100,> 100,58,64.1,> 100,63.9,> 100
C(#Cc1ccccc1C#Cc1ccccn1)c1ccc(OCCCCCCOc2ccc(C#Cc3ccccc3C#Cc3ccccn3)cc2)cc1,1.76 µM,1.87 µM,2.02 µM,5.05 µM,4.91 µM,12 µM,7.76,1.62,8.29,0.35 µM,4.16 µM,2.7,11.5,11.1,21.4,12,16.3,5.46,14.6,9.37
N=C(N)c1ccc(-c2ccc(-c3ccco3)o2)cc1F,2.02 µM,2.09 µM,1.43 µM,1.78 µM,0.968 µM,2.98 µM,1.74,1.83,4.84,–,2.31 µM,2.88,11.1,3.72,3.14,4.64,3.38,–,6.53,4.81
Cc1cc(Cl)ccc1Nc1nc(C(F)(F)F)ccc1C(=O)N/N=C/c1ccc(F)cc1,0.621 µM,1.84 µM,1.71 µM,1.82 µM,1.75 µM,6.14 µM,1.11,2.64,10.5,1.79 µM,1.48 µM,0.513,12.9,5.82,5.35,6.55,4.7,3.82,6.33,12.4
CCN(CC)CCCC(C)Nc1ccnc2cc(Cl)c(SCc3ccccc3)cc12 (stereo not given),0.417 µM,1.64 µM,1.35 µM,1.19 µM,1.14 µM,3.2 µM,1.71,0.506,1.72,0.214 µM,1.73 µM,1.53,4.05,3.22,2.95,2.94,3.68,0.585,3.44,1.63
COC(=O)/C(Br)=C/c1c[nH]c2ccc(Br)cc12,6.26 µM,6.9 µM,6.36 µM,12.9 µM,2.13 µM,15.7 µM,14.5,10.9,26.8,12.4 µM,18.2 µM,10.7,56.8,25.4,30.1,29.1,28.3,26.7,34.3,21.4
O=C1C=CC(=O)N1CCCCCCCCCCN1C(=O)C=CC1=O,10.3 µM,–,4.92 µM,9.19 µM,20.8 µM,37 µM,2.05,5.62,24.2,14.8 µM,13.9 µM,8.38,24.8,–,19.6,25.2,6.49,28.2,44,25.7
N=C1N=Nc2nc(C3(c4nc5n(c4O)C(=N)N=N5)Cc4ccccc4C3=O)c(O)n21 (stereo not given),–,> 100 µM,–,–,–,> 100 µM,–,–,> 100,–,–,> 100,> 100,> 100,> 100,> 100,> 100,> 100,> 100,> 100
O=C(Nc1cccc2ccccc12)c1cc2ccccc2cc1O,3.03 µM,2.14 µM,1.22 µM,1.75 µM,0.969 µM,4.25 µM,0.562,1.7,7.71,1.49 µM,2.52 µM,2.69,35.9,4.69,4.95,4.52,3.9,10.7,8.25,11.6
COc1ccc(/C=C/C(=O)c2ccc(NC(=O)CSc3nnc(-c4cc(OC)c(OC)c(OC)c4)o3)cc2)cc1,1.63 µM,1.79 µM,1.46 µM,–,1.93 µM,4.23 µM,1.68,1.27,3.68,1.73 µM,2.32 µM,2,4.62,4.82,2.97,–,3.45,3.43,5.73,3.22
CC(=O)/C=C/c1ccc(N(C)Cc2ccc(C(C)(C)C)cc2)cc1,89.7 µM,164 µM,83.2 µM,–,129 µM,267 µM,138,45.5,318,113 µM,148 µM,125,330,344,212,–,284,255,516,327
CSc1ccc2c(c1)C(=O)c1c-2n(CCCN=[N+]=[N-])c(=O)c2cc([N+](=O)[O-])ccc12,> 87.1 µM,66.7 µM,1.62 µM,2.33 µM,5.24 µM,> 100 µM,–,4.09,> 100,0.683 µM,7.97 µM,> 100,> 100,> 100,> 100,> 66.5,> 38.9,> 88.7,> 100,> 100
COc1ccc2cc(C(=O)/C=C/c3ccccc3OC)ccc2c1,1.67 µM,10.3 µM,5.93 µM,0.862 µM,> 22.6 µM,> 50.4 µM,8.32,–,> 100,1.88 µM,2.71 µM,18.9,> 100,35.2,18.8,4.88,67.2,11.9,7.34,14.3
COc1ccc(-c2oncc2-c2cc(OC)c3c(c2)OCO3)cc1,1.2 µM,2.88 µM,4.46 µM,2.16 µM,2.08 µM,28.6 µM,> 100,1.59,> 100,2.85 µM,4.86 µM,10,> 100,> 29.5,55.9,31.2,> 100,57.7,> 100,> 100
Cc1ccc(S(=O)(=O)N2C/C(=C\c3cc(F)cc(F)c3)C(=O)/C(=C/c3cc(F)cc(F)c3)C2)cc1,0.22 µM,0.972 µM,0.481 µM,0.367 µM,1.1 µM,3.17 µM,0.256,0.177,1.38,0.231 µM,0.301 µM,0.367,3.57,2.84,1.08,2.4,0.647,0.605,1.77,0.966
Cc1cc(Cl)ccc1Nc1nc(C(F)(F)F)ccc1C(=O)N/N=C/c1c(Cl)cccc1Cl,0.145 µM,0.272 µM,0.301 µM,0.0557 µM,0.221 µM,0.664 µM,0.494,0.233,0.749,0.489 µM,0.445 µM,0.289,> 100,1.33,–,3.28,2.5,6.38,> 100,> 100
COc1cccc(-c2cc(NCc3ccc4c(c3)OCO4)nc(N)n2)c1,0.0533 µM,0.219 µM,0.104 µM,1.06 µM,4.04 µM,20.5 µM,0.112,0.0765,13.9,0.0546 µM,0.123 µM,0.225,27.5,17.9,17,32.4,26.3,18.1,5.2,13.9
N=c1c2c(=O)n3c(nc2nc2sc4ccc(Cl)cc4n12)-c1ccccc1Sc1ccccc1-3,2.96 µM,2.07 µM,2.29 µM,2.36 µM,0.762 µM,6.08 µM,2.15,3.06,21.8,1.28 µM,2.95 µM,3.5,19.6,5.99,9.97,12.9,9.21,3.27,11.8,14.5
CCC1=C[C@H]2CN(CCc3c([nH]c4ccccc34)[C@@](C(=O)OC)(c3cc4c(cc3OC)N(C)[C@H]3[C@@](O)(C(=O)OC)[C@H](OC(C)=O)[C@]5(CC)[C@@H]6C[C@@H]6CN6CC[C@]43[C@@H]65)C2)C1,0.0738 µM,0.0752 µM,0.175 µM,–,0.109 µM,1.76 µM,0.249,0.0131,3.61,0.0211 µM,0.127 µM,0.375,> 25,4.64,5.02,–,5.82,5.12,5.8,3.31
Cc1ccc(C2CC(c3cccc(Nc4ccncc4)c3)=NN2c2ccc(Cl)cc2)cc1 (stereo not given),1.83 µM,–,1.35 µM,1.51 µM,1.38 µM,2.74 µM,1.6,1.8,3.86,1.72 µM,–,1.69,3.35,–,2.63,2.97,3.05,3.14,–,3.43
COc1ccc2c(c1)N(CCC1CCCCN1C)c1ccccc1S2 (stereo not given),–,–,–,–,–,22.6 µM,–,–,24.5,–,–,–,24,29.1,–,21.5,33.7,25.2,30.9,27.4
